In PMC4994268, “4-aroylpiperidines and 4-(α-hydroxyphenyl)piperidines as selective sigma-1 receptor ligands: synthesis, preliminary pharmacological evaluation and computational studies” (Chemistry Central Journal, 2016):
Where a name gives a salt, the structure may show the parent alone.

Tests used:
σ1 receptor [1] = biological target: T1, σ1 receptor (Rattus norvegicus, UniProt Q9R0C9); experiment: Sigma receptor binding, σ1 sites, [3H](+)-pentazocine competition in rat liver membrane homogenates; settings: for Ki: HCl salts tested, rat liver membrane homogenates
T1 construct: Rat liver membrane homogenates (~300 μg protein) were diluted with 50 mM Tris–HCl buffer; from tissue; host or cells: rat liver membrane homogenates
T1 sequence (Q9R0C9 whole entry): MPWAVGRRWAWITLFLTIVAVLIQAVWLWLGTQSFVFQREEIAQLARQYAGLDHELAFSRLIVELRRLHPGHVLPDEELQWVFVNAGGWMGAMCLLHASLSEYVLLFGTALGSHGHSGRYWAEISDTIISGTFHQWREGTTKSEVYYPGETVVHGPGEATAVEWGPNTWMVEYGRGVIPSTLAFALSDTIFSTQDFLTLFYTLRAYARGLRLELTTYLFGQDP
Method: (§1) These experiments were performed as described by Jinbin et al. with some modification. Different concentrations of test samples were achieved by diluting stock solutions with a solution containing 50 mM Tris–HCl, 150 mM NaCl and 100 mM EDTA at pH 7.4. Rat liver membrane homogenates (~300 μg protein) were diluted with 50 mM Tris–HCl buffer, pH 8.0 and incubated in a total volume of 150 μL with the radioligand at 25 °C in 96 well plates. The incubation time was 60 min for test compounds and 120 min for [^3H] DTG and [^3H] (+)-pentazocine.
(§2) It is worth mentioning that, this was done one at a time. The final concentration of the radioligand in each assay was ~1 nM for [^3H] test compounds and ~5 nM for [^3H]
(§3) The reaction was started by adding 0.2 mL of the membrane preparation to the 50 mM Tris–HCl (pH 8.0) buffer containing ^3H-labeled ligand with a final concentration of 5 nM and cold ligand ranging from 0.01 to 0.1 mM in a final volume of 1.0 mL. Incubations were carried out at […] in the binding study with [^3H] […] DTG. Inhibitor concentrations ranging from 0.1 nM to 10 μM were added to acquire the inhibition curves. After the reaction was completed, the samples were harvested, washed three times, and the bound radioactivity counted and analyzed.

σ1 receptor [2] = experiment: as above; settings: ratio of Ki σ2 to Ki σ1
Method: as §1, §2, §3

σ2 receptor = biological target: T2, σ2 receptor (Rattus norvegicus, UniProt Q5U3Y7); experiment: Sigma receptor binding, σ2 sites, [3H]DTG competition with σ1 sites masked by (+)-pentazocine, rat liver membrane homogenates; settings: HCl salts tested
T2 construct: Rat liver membrane homogenates (~300 μg protein) were diluted with 50 mM Tris–HCl buffer; from tissue; host or cells: rat liver membrane homogenates
T2 sequence (Q5U3Y7 1-176): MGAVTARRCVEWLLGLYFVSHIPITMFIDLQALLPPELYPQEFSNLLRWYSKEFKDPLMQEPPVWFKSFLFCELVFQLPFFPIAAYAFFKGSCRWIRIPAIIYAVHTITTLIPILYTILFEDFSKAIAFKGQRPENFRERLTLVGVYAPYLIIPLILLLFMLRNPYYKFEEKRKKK
Method: as §1
It is worth mentioning that, this was done one at a time. The final concentration of the radioligand in each assay was ~1 nM for [^3H] test compounds and ~5 nM for [^3H] […]

σ1 receptor [3] = settings: reference ligands in Table 1; cited from earlier work

SMILES	melting point	Ki (σ1 receptor [1])	Selectivity ratio (Ki σ2/σ1) (σ1 receptor [2])	Ki (σ2 receptor)	increase in σ1 receptor affinity on reduction of the carbonyl compound to the corresponding alcohol (σ1 receptor [1]; alcohol 8 versus ketone 7)	decrease in σ1 binding affinity on reduction of the carbonyl to the corresponding alcohol (σ1 receptor [1]; alcohol 8 versus ketone 7)	Ki (σ1 receptor [3])
O=C(c1ccc(F)cc1)C1CCN(Cc2ccccc2[N+](=O)[O-])CC1 (as salt: HCl) [Compound 7d, 4-(4-fluorobenzoyl)-1-[(2-nitrophenyl)methyl]piperidine]	95 to 97 °C	–	–	–	–	–	–
Cc1ccc(CN2CCC(C(=O)c3ccc(F)cc3)CC2)cc1 (as salt: HCl) [Compound 7f, 4-(4-fluorobenzoyl)-1-[(4-methylphenyl)methyl]piperidine]	108 to 110 °C	–	–	–	–	–	–
O=C(c1ccc(F)cc1)C1CCN(Cc2ccc(F)cc2)CC1 [Compound 7a, 4-(4-fluorobenzoyl)-1-[(4-fluorophenyl)methyl]piperidine]	–	2.96 ± 0.5 nM	75	222 ± 8 nM	–	–	–
O=C(c1ccc(F)cc1)C1CCN(Cc2ccc(Cl)c(Cl)c2)CC1 [Compound 7b, 1-[(3,4-dichlorophenyl)methyl]-4-(4-fluorobenzoyl)piperidine]	–	> 434 nM	–	> 854 nM	–	–	–
O=C(c1ccc(F)cc1)C1CCN(Cc2ccc(Cl)cc2)CC1 [Compound 7c, 1-[(4-chlorophenyl)methyl]-4-(4-fluorobenzoyl)piperidine]	–	5.98 ± 0.41 nM	93	554 ± 34.2 nM	–	–	–
O=C(c1ccc(F)cc1)C1CCN(Cc2ccccc2[N+](=O)[O-])CC1 [Compound 7d, 4-(4-fluorobenzoyl)-1-[(2-nitrophenyl)methyl]piperidine]	–	> 434 nM	–	> 854 nM	–	–	–
O=C(c1ccc(F)cc1)C1CCN(Cc2ccc(Br)cc2)CC1 [Compound 7e, 1-[(4-bromophenyl)methyl]-4-(4-fluorobenzoyl)piperidine]	–	1.4 ± 0.5 nM	> 610	> 854 nM	–	–	–
Cc1ccc(CN2CCC(C(=O)c3ccc(F)cc3)CC2)cc1 [Compound 7f, 4-(4-fluorobenzoyl)-1-[(4-methylphenyl)methyl]piperidine]	–	11.6 ± 0.26 nM	13	151 ± 7.79 nM	–	–	–
OC(c1ccc(F)cc1)C1CCN(Cc2ccc(F)cc2)CC1 (stereo not drawn) [Compound 8a, (4-fluorophenyl)({1-[(4-fluorophenyl)methyl]piperidin-4-yl})methanol]	–	1.41 ± 0.22 nM	> 606	> 854 nM	twofold	–	–
OC(c1ccc(F)cc1)C1CCN(Cc2ccc(Cl)c(Cl)c2)CC1 (stereo not drawn) [Compound 8b, {1-[(3,4-dichlorophenyl)methyl]piperidin-4-yl}(4-fluorophenyl)methanol]	–	> 434 nM	–	> 854 nM	–	–	–
OC(c1ccc(F)cc1)C1CCN(Cc2ccc(Cl)cc2)CC1 (stereo not drawn) [Compound 8c, {1-[(4-chlorophenyl)methyl]piperidin-4-yl}(4-fluorophenyl)methanol]	–	2.49 ± 0.24 nM	> 343	> 854 nM	twofold	–	–
O=[N+]([O-])c1ccccc1CN1CCC(C(O)c2ccc(F)cc2)CC1 (stereo not drawn) [Compound 8d, (4-fluorophenyl)({1-[(2-nitrophenyl)methyl]piperidin-4-yl})methanol]	–	527 ± 69 nM	2	> 854 nM	–	–	–
OC(c1ccc(F)cc1)C1CCN(Cc2ccc(Br)cc2)CC1 (stereo not drawn) [Compound 8e, {1-[(4-bromophenyl)methyl]piperidin-4-yl}(4-fluorophenyl)methanol]	–	5.22 ± 0.3 nM	> 164	> 854 nM	–	fivefold	–
Cc1ccc(CN2CCC(C(O)c3ccc(F)cc3)CC2)cc1 (stereo not drawn) [Compound 8f, (4-fluorophenyl)({1-[(4-methylphenyl)methyl]piperidin-4-yl})methanol]	–	1.45 ± 0.4 nM	> 589	> 854 nM	11 fold	–	–
O=[N+]([O-])c1ccccc1CN1CCC(C(NCc2cccc(Br)c2)c2ccc(F)cc2)CC1 (stereo not drawn) [Compound 9d, [(3-bromophenyl)methyl][(4-fluorophenyl)({1-[(2-nitrophenyl)methyl]piperidin-4-yl})methyl]amine]	–	> 434 nM	–	> 854 nM	–	–	–
Fc1ccc(C(NCc2cccc(Br)c2)C2CCN(Cc3ccc(Br)cc3)CC2)cc1 (stereo not drawn) [Compound 9e, [(3-bromophenyl)methyl]({1-[(4-bromophenyl)methyl]piperidin-4-yl}(4-fluorophenyl)methyl)amine]	–	2.95 ± 0.57 nM	> 289	> 854 nM	–	–	–
c1ccc(CN2CCC3(CCc4ccccc4S3)CC2)cc1 [Spipethiane, 1′-Benzyl-3,4-dihydrospiro[2H-1-benzothiopyran-2,4′-piperidine]]	–	–	–	–	–	–	0.5 nM
